Key:
A375 xenograft = A375 xenograft in mice; type: in vivo, Foxn1 nu mice; conditions: for inhibition in tumor growth: 15 mg/kg and 30 mg/kg I.P. q.o.d
Procedure: (§1) Animal studies were approved by the Institutional Animal Care and Use Committee of the Faculty of Medicine of the Hebrew University and followed the guidelines for use of laboratory animals. 6-8-week-old male Foxn1 nu mice were S.C. injected with 5×10^6 A375 and MDA-MB-231 cells/mouse. Mice were I.P treated with 30 mg/kg and 15 mg/kg AD-3281 every other day and with 15 mg/kg, 7.5 mg/kg AD-3281 every other day in mice injected with A375 and MDA-MB-231 respectively. Tumor growth was measured with a digital caliper. At the end of the experiments after 18 or 15 days, mice were sacrificed, and tumors were surgically removed, weighed, volume was measured and histology stating was performed. AD-3281 was dissolved in 10:10:80 […]:ethanol:saline.
(§2) Animal studies were approved by the Institutional Animal Care and Use Committee of the Faculty of Medicine of the Hebrew University and followed the guidelines for use of laboratory animals. 6-8-week-old male Foxn1 nu mice were S.C. injected with 5×10^6 A375 or MDA-MB-231 cells/mouse. Mice were I.P treated with 30 mg/kg and 15 mg/kg AD-3281 q.o.d and with 15 mg/kg, 7.5 mg/kg AD-3281 (dissolved in 10:10:80 Cremophor EL: Ethanol: Saline) q.o.d in mice injected with A375 and MDA-MB-231 respectively. Tumor growth was measured with a digital caliper. At the end of the experiments after 18 or 15 days, mice were sacrificed, and tumors were surgically removed, weighed, volume was measured and histology stating was performed. Tumor tissues were resected at the end point and analyzed by immunohistology using standard protocol for paraffin fixed sections using anti-Ki-67 (Abcam, catalog number ab15580), anti-CD31 (Abcam, catalog number ab28364), anti-MetAp-2 (Ab134124, Abcam, Cambridge, UK) (Figure S.

[1] = biological target: T1, MetAp2 in MDA-MB-231 cancer cells (Homo sapiens, UniProt P50579); experiment: MetAp2 enzymatic activity in MDA-MB-231 cell homogenate; type: biochemical; conditions: 2.5 μM
T1 construct: host or cells: MDA-MB-231 cell homogenate (RIPA supernatant, 5 µg protein)
T1 sequence (P50579 whole entry): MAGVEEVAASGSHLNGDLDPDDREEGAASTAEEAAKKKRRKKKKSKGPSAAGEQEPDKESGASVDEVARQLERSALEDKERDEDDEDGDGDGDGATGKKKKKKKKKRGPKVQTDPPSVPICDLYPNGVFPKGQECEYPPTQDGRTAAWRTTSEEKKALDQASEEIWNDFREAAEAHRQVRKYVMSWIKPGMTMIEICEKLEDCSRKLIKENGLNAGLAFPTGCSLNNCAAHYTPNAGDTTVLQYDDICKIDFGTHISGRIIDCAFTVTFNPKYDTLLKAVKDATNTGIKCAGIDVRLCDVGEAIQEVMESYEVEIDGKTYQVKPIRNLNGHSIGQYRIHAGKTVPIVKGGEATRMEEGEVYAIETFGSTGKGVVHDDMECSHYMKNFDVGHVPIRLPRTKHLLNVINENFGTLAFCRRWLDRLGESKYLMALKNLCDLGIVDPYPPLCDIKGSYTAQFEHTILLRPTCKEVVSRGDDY
Procedure: (§3) A375 and MDA-MB-231 were sub cultivated using trypsin, then centrifuge and counted. To obtain a homogenate containing an equivalent cell number, cells were resuspended in an appropriate volume of cold RIPA containing a protease inhibitor cocktail. Insoluble cellular components were removed by centrifugation at 15,000 RPM for 10 min at 4° C. The protein content of the supernatant was determined according to the Bradford protein assay using BSA as the standard.
(§4) The enzymatic assay was performed using 5 μg protein per sample as described previously. […] An increase of fluorescence, due to substrate degradation during the enzymatic assay, was measured every 20 seconds for 1 h and 30 min at 37° C. using a plate reader (Wallac 1420 VICTOR plate reader, Perkin-Elmer Life Sciences, USA). […]
(§5) A375 and MDA-MB-231 were sub-cultivated using trypsin, then centrifuged and counted. […] The protein content of the supernatant was determined according to the Bradford protein assay using BSA as the standard. […] An increase of fluorescence, due to substrate degradation during the enzymatic assay, was measured every 20 seconds for 1 h and 30 min at 37° C. using a plate reader (Wallac 1420 VICTOR plate reader, Perkin-Elmer Life Sciences, USA). […]

MetAP2 = MetAP2 (Homo sapiens, UniProt P50579); experiment: MetAp2 enzymatic assay, L-Met-AMC substrate (Experimental Set-Up 1); type: biochemical
MetAP2, sequence (P50579 whole entry): as above
Procedure: Quantitative MetAP2 activity assay by N-terminal cleavage of substrate 7-amino-4-methyl-courmarin was performed as follows: The activity of MetAP2 was measured using fluorescent peptide substrate L-Met-AMC (Santa Cruz Biotechnology, Inc, sc-207807) as described by Garrabrant et al. (Angiogenesis 7: 91-96, 2004). Briefly, the reaction (100 μl final) was initiated by adding 0.5 μg of MetAP2 or 5 μg HUVEC homogenate to reaction buffer containing 50 mM HEPES (pH 7.4), 100 mM NaCl, 0.1 mM CoCl2, 1 mg/ml PEG6000, and 250 μM L-Met-AMC substrate. The assay was prepared in black flat-bottomed 96-well microtiter plates and fluorescence was measured every 20 s over a period of 60 min at 25° C. using a microplate fluorometer (Bioteck, SynergyHT), with excitation and emission wavelengths set at 360 and 440 nm respectively. As a control the inhibition of the enzyme was obtained by incubating it with TNP-470 for 15 min before the addition of the substrate.
The inhibitory effect of the compounds were tested in MetAp2 enzymatic assay.

[2] = biological target: T2, MetAp2 in A375 cancer cells (Homo sapiens, UniProt P50579); experiment: MetAp2 enzymatic activity in A375 cell homogenate; type: biochemical; conditions: 2.5 μM
T2 construct: host or cells: A375 cell homogenate (RIPA supernatant, 5 µg protein)
T2 sequence (P50579 whole entry): as above
Procedure: as §3, §4, §5

MDA-MB-231 xenograft = MDA-MB-231 xenograft in mice; type: in vivo, Foxn1 nu mice
Procedure: as §1, §2

- inhibition of MetAp2 activity in MDA-MB-231 after 10 minutes ([1]; 10 minutes of exposure): Significant inhibition
- reduction of MetAp2 enzymatic activity in MDA-MB-231 ([1]; over the course of 1 h): 80%
- inhibitory effect in MetAp2 enzymatic assay (ranking among compounds) (MetAP2): most active
- inhibition of MetAp2 activity in A375 after 10 minutes ([2]; 10 minutes of exposure): Significant inhibition
- reduction of MetAp2 enzymatic activity in A375 ([2]; over the course of 1 h): 64%
- weight loss (>10%) (MDA-MB-231 xenograft; all treated mice): not weight loss was detected
SMILES: COC1C(OC(=O)CC23CC4CC(CC(C4)C2)C3)CCC2(CO2)C1C1(C)OC1CC=C(C)C (stereo not drawn) [AD-3281, Fumagillol-1-adamantylacetate]
- inhibition in tumor growth (A375 xenograft; after 8 days, vs control): ~70%
- inhibition in tumor growth (A375 xenograft; day 18): 99%
- cellular proliferation in tumors (Ki-67) (A375 xenograft; immunofluorescent staining of extracted tumors): less cellular proliferation than untreated tumors
- mean weight of extracted tumors (A375 xenograft; treated groups, day 18 (untreated 1 g)): ~0.1 g
- mean weight of extracted tumors (MDA-MB-231 xenograft; 7.5 mg/kg q.o.d (untreated 1 g)): 0.05 g
- tumor volume inhibition (MDA-MB-231 xenograft; 7.5 mg/kg q.o.d, after 15 days): 97%
- mean weight of extracted tumors (MDA-MB-231 xenograft; 15 mg/kg q.o.d (untreated 1 g)): 0.001 g
- tumors that seemed completely eradicated (MDA-MB-231 xenograft; 15 mg/kg q.o.d, after 15 days, n=4): 3 tumors
- systemic adverse effects (MDA-MB-231 xenograft; all treated mice): no signs of systemic adverse effects

From patent publication US20250129033A1, “METAP2 INHIBITORS AND USES THEREOF” (Yissum Research Development Company of the Hebrew …, priority 2022, published 2025)
